Where two headings read alike, the source gives them in different places.
How the values were obtained:
[1] = plasma pharmacokinetics in patients (HPLC–MS/MS, non-compartmental analysis); format: in vivo, human; conditions: for AUC(0-t): read-out: AUC0-12h PD-0325901, mean (CV%); for Cmax: read-out: Cmax PD-0325901, mean (CV%)
Method: For pharmacokinetic analyses, serial blood samples were obtained from all patients prior to treatment administration on day 1, and 1, 2, 3, 4, 6, 8, 12, 24, 72 and 144 h after the first dose. On day 1 of cycle 2, blood samples were drawn before and 1, 2, 3, 4, 6, 8, 12 and 24 h after administration. Plasma samples were assayed using a validated high-performance liquid chromatography– tandem mass spectrometry method (HPLC–MS/MS). Briefly, dacomitinib and PD-0325901 were extracted from plasma by protein precipitation with a mixture of acetonitrile/methanol (1:1 v/v). Compounds were chromatographically separated using a Waters Xbridge BEH Phenyl column (50 ×2.1-mm ID, 5-μm particle size), and detection was performed using an API4000 tandem mass spectrometer equipped with a turbo ion spray interface, operating in the positive ion mode. Transitions from m/z 480 to 329 and m/z 489 to 255 were monitored for the detection of dacomitinib and PD-0325901, respectively. Stable isotope-labelled internal standards were used for the quantification. The lower and upper limits of quantification were, respectively, 0.5 and 50 ng/ml for dacomitinib, and 5 and 500 ng/ml for PD-0325901. Pharmacokinetic parameters were calculated in R using an in-house-developed validated script for non-compartmental pharmacokinetic analyses (version 3.6.0).[9]

[2] = test system: patients with KRASm CRC, NSCLC or pancreatic cancer; format: in vivo; conditions: dacomitinib QD continuous, PD-0325901 BID 21 days on/7 days off
From the text: . The starting doses were based on previous data from single-agent Phase 1 studies with both compounds, taking into account the potential for synergistic toxicity. […]. Dose-escalation decisions were based on safety evaluation of all evaluable patients, performed after completion of the first treatment cycle. Patients were considered evaluable for the dose-determining part of this study if at least one cycle of study treatment was completed, with the minimum safety evaluation conducted, and at least one administration of both drugs received, or if dose-limiting toxicity (DLT) had occurred during the first cycle. If one out of three patients experienced a DLT, the number of patients treated at that dose level was expanded to a maximum of six. […] Patients were continuing study treatment until disease progression, unacceptable toxicity or investigator/patient decision to discontinue.
Safety was monitored throughout the treatment by physical examination, laboratory assessments, electrocardiography, ophthalmic evaluation and collection of adverse events. Adverse events were recorded according to the Common Terminology Criteria for Adverse Events version 4.0. All adverse events that were possible, probable or definite related to study drug were considered as study/treatment related. […]

[3] = test system: patients with advanced cancers; design: method as in PMID 20215549; conditions: BID, continuous schedule; cited from earlier work
[4] = Dose-level 2: dacomitinib 15 mg QD + PD-0325901 3 mg BID, Cycle 1 Day 1, n = 6
[5] = human, plasma, oral, 6 mg, All 6 mg doses, Cycle 1 Day 1, n = 14
[6] = human, plasma, oral, 6 mg, All 6 mg doses, Cycle 2 Day 1 or last day of concomitant use, n = 6
[7] = human, plasma, oral, Dose-level 1: dacomitinib 30 mg QD + PD-0325901 2 mg BID, Cycle 1 Day 1, n = 6
[8] = human, plasma, oral, Dose-level 1: dacomitinib 30 mg QD + PD-0325901 2 mg BID, Cycle 2 Day 1, n = 6
[9] = human, plasma, oral, Dose-level 2: dacomitinib 15 mg QD + PD-0325901 3 mg BID, Cycle 2 Day 1, n = 5
[10] = human, plasma, oral, Dose-level 3: dacomitinib 15 mg QD + PD-0325901 4 mg BID, Cycle 1 Day 1, n = 2
[11] = human, plasma, oral, Dose-level 3: dacomitinib 15 mg QD + PD-0325901 4 mg BID, Cycle 2 Day 1, n = 2
[12] = human, plasma, oral, Dose-level 4: dacomitinib 15 mg QD + PD-0325901 5 mg BID, Cycle 1 Day 1, n = 3
[13] = human, plasma, oral, Dose-level 4: dacomitinib 15 mg QD + PD-0325901 5 mg BID, Cycle 2 Day 1, n = 4
[14] = human, plasma, oral, Dose-level 5: dacomitinib 15 mg QD + PD-0325901 6 mg BID, Cycle 1 Day 1, n = 8
[15] = human, plasma, oral, Dose-level 5: dacomitinib 15 mg QD + PD-0325901 6 mg BID, Cycle 2 Day 1, n = 5
[16] = human, plasma, oral, Dose-level 6: dacomitinib 30 mg (4/3) QD + PD-0325901 6 mg BID, Cycle 1 Day 1, n = 3
[17] = human, plasma, oral, Dose-level 6: dacomitinib 30 mg (4/3) QD + PD-0325901 6 mg BID, last day of concomitant use of both drugs, n = 1
[18] = human, plasma, oral, Dose-level 7: dacomitinib 30 mg (5/2) QD + PD-0325901 6 mg (5/2) BID, Cycle 1 Day 1, n = 3
[19] = human, plasma, oral, Dose-level 7: dacomitinib 30 mg (5/2) QD + PD-0325901 6 mg (5/2) BID, last day of concomitant use of both drugs, n = 2
[20] = human, plasma, oral, Dose-level 8: dacomitinib 30 mg (5/2) QD + PD-0325901 5 mg (5/2) BID, Cycle 1 Day 1, n = 4
[21] = human, plasma, oral, Dose-level 8: dacomitinib 30 mg (5/2) QD + PD-0325901 5 mg (5/2) BID, last day of concomitant use of both drugs, n=2
[22] = human, plasma, oral, Dose-level -1: dacomitinib 15 mg QD + PD-0325901 2 mg BID, Cycle 1 Day 1, n = 4
[23] = human, plasma, oral, Dose-level -1: dacomitinib 15 mg QD + PD-0325901 2 mg BID, Cycle 2 Day 1, n = 3
[24] = patients, combination treatment

Compound: O=C(NOC[C@H](O)CO)c1ccc(F)c(F)c1Nc1ccc(I)cc1F [PD-0325901]
- tmax PD-0325901, mean ([1]; All 6 mg doses, Cycle 1 Day 1, n = 14): 1.5 h
- tmax PD-0325901, mean ([1]; All 6 mg doses, Cycle 2 Day 1 or last day of concomitant use, n = 6): 2.2 h
- tmax PD-0325901, mean ([1]; Dose-level 1: dacomitinib 30 mg QD + PD-0325901 2 mg BID, Cycle 1 Day 1, n = 6): 1.2 h
- tmax PD-0325901, mean ([1]; Dose-level 1: dacomitinib 30 mg QD + PD-0325901 2 mg BID, Cycle 2 Day 1, n = 6): 1.5 h
- AUC0-12h PD-0325901, mean (CV%) [1, 4]: 273 (15) ng*h/ml
- tmax PD-0325901, mean [1, 4]: 1.2 h
- tmax PD-0325901, mean ([1]; Dose-level 2: dacomitinib 15 mg QD + PD-0325901 3 mg BID, Cycle 2 Day 1, n = 5): 2.2 h
- tmax PD-0325901, mean ([1]; Dose-level 4: dacomitinib 15 mg QD + PD-0325901 5 mg BID, Cycle 1 Day 1, n = 3): 1.4 h
- tmax PD-0325901, mean ([1]; Dose-level 5: dacomitinib 15 mg QD + PD-0325901 6 mg BID, Cycle 1 Day 1, n = 8): 1.4 h
- tmax PD-0325901, mean ([1]; Dose-level 5: dacomitinib 15 mg QD + PD-0325901 6 mg BID, Cycle 2 Day 1, n = 5): 1.2 h
- tmax PD-0325901, mean ([1]; Dose-level 6: dacomitinib 30 mg (4/3) QD + PD-0325901 6 mg BID, Cycle 1 Day 1, n = 3): 1.3 h
- tmax PD-0325901, mean ([1]; Dose-level 7: dacomitinib 30 mg (5/2) QD + PD-0325901 6 mg (5/2) BID, Cycle 1 Day 1, n = 3): 1.3 h
- tmax PD-0325901, mean ([1]; Dose-level 8: dacomitinib 30 mg (5/2) QD + PD-0325901 5 mg (5/2) BID, Cycle 1 Day 1, n = 4): 1.5 h
- tmax PD-0325901, mean ([1]; Dose-level -1: dacomitinib 15 mg QD + PD-0325901 2 mg BID, Cycle 1 Day 1, n = 4): 1.3 h
- tmax PD-0325901, mean ([1]; Dose-level -1: dacomitinib 15 mg QD + PD-0325901 2 mg BID, Cycle 2 Day 1, n = 3): 1.1 h
- plasma concentration versus target level (16.5 ng/ml) ([1]; PD-0325901 doses of 5 and 6 mg, during the entire dose interval): exceeded the target level
- increase of exposure with dose ([1]; across dose levels): approximately dose-proportionally
- AUC(0-t) [1, 5]: 706 ng·h/mL
- Cmax [1, 5]: 227 ng/mL
- AUC(0-t) [1, 6]: 954 ng·h/mL
- Cmax [1, 6]: 217 ng/mL
- AUC(0-t) [1, 7]: 188 ng·h/mL
- Cmax [1, 7]: 68.7 ng/mL
- AUC(0-t) [1, 8]: 210 ng·h/mL
- Cmax [1, 8]: 58.3 ng/mL
- Cmax ([1]; human, plasma, oral, Dose-level 2: dacomitinib 15 mg QD + PD-0325901 3 mg BID, Cycle 1 Day 1, n = 6): 85 ng/mL
- AUC(0-t) [1, 9]: 279 ng·h/mL
- Cmax [1, 9]: 73.8 ng/mL
- AUC(0-t) [1, 10]: 452 ng·h/mL
- Cmax [1, 10]: 106 ng/mL
- AUC(0-t) [1, 11]: 376 ng·h/mL
- Cmax [1, 11]: 125 ng/mL
- AUC(0-t) [1, 12]: 552 ng·h/mL
- Cmax [1, 12]: 179 ng/mL
- AUC(0-t) [1, 13]: 638 ng·h/mL
- Cmax [1, 13]: 229 ng/mL
- AUC(0-t) [1, 14]: 822 ng·h/mL
- Cmax [1, 14]: 262 ng/mL
- AUC(0-t) [1, 15]: 855 ng·h/mL
- Cmax [1, 15]: 242 ng/mL
- AUC(0-t) [1, 16]: 635 ng·h/mL
- Cmax [1, 16]: 192 ng/mL
- AUC(0-t) [1, 17]: 1340 ng·h/mL
- Cmax [1, 17]: 254 ng/mL
- AUC(0-t) [1, 18]: 635 ng·h/mL
- Cmax [1, 18]: 192 ng/mL
- AUC(0-t) [1, 19]: 406 ng·h/mL
- Cmax [1, 19]: 56 ng/mL
- Tmax ([1]; human, plasma, oral, Dose-level 7: dacomitinib 30 mg (5/2) QD + PD-0325901 6 mg (5/2) BID, last day of concomitant use of both drugs, n = 2, read-out: tmax PD-0325901, mean): 4.5 h
- AUC(0-t) [1, 20]: 463 ng·h/mL
- Cmax [1, 20]: 134 ng/mL
- AUC(0-t) [1, 21]: 667 ng·h/mL
- Cmax [1, 21]: 155 ng/mL
- AUC(0-t) [1, 22]: 160 ng·h/mL
- Cmax [1, 22]: 43.7 ng/mL
- AUC(0-t) [1, 23]: 145 ng·h/mL
- Cmax [1, 23]: 47.7 ng/mL
- half-life ([1]; human, plasma, oral, patients, combination treatment, read-out: half-life, range): 5 to 9.9 h
- accumulation after multiple doses (AUC and Cmax) [1, 24]: minimal accumulation
- half-life, mean [1, 24]: 7.7 h
- recommended Phase 2 dose (RP2D) / established maximum dose level in the combination with continuous dacomitinib dosing [2]: 6 mg
- formal single-agent RP2D [3]: 10 mg

Source: article PMC7156736, “Phase 1 study of the pan-HER inhibitor dacomitinib plus the MEK1/2 inhibitor PD-0325901 in patients with KRAS-mutation-positive colorectal, non-small-cell lung and pancreatic cancer” (British Journal of Cancer, 2020)
